Assay results taken from patent US8470783B2, “Medicinal use of histone deacetylase inhibitor and method of evaluating antitumor effect thereof” (Astellas Pharma Inc., priority 2001, dated 2013).

Experiments:
[1] = system: human gastric cancer SC-6; experiment: In vivo growth suppression rate, SC-6 tumor-carrying mice; set-up: species or system mouse; details: SC-6, FR901228 3.2 mg/kg
Protocol: (§1) The growth suppression rate of human prostate cancer PC-3, human gastric cancer SC-6, human kidney cancer ACHN and human kidney cancer A498 by the administration of FR901228 (3.2 mg/kg) was 98%, 84%, 20% and 29%, respectively. Therefore, PC-3 and SC-6 were determined to be FK228 sensitive tumors, and ACHN and A498 were determined to be FK228 resistant tumors.

[2] = system: human lymphoma cell line U937; experiment: Survival test, human lymphoma U937 implanted intraperitoneally in SCID mice (Example 2); type: in vivo, mouse; details: U937, i.p. once or twice a week, 0.1-1.0 mg/kg, FIG. 2
Protocol: A necessary amount of FR901228 was weighed and a solvent (10% HCO-60/saline) was added. The mixture was sonicated to allow for dissolution.
For antitumor test of the pharmaceutical agent, Fox Chase C. B-17/Icr-SCID.Jcl mice (male, 6-week-old) were purchased from CLEA JAPAN INC. and, after acclimation for not less than one week, used for the test. The mice were reared under an SPF environment and allowed a free access to water and feed.
Cultured human lymphoma cell line (U937: obtained from Dr. Minowada, Hayashibara Biochemical Laboratories, Inc.) was cultured in RPMI (containing 10% FCS) and subcultured in vitro.
Cyclo phosphamide (Shionogi & Co., Ltd., 150 mg/kg) was intraperitoneally administered to mice. Lymphoma (1×10^7 cells) subcultured in vitro was intraperitoneally implanted the next day. After the tumor implantation, the mice were grouped into 6 (control group 12) mice per group to level the body weight.
The administration was started on the day of grouping (Day 0). FR901228 was intraperitoneally administered to an FR901228 administration group once or twice a week (0.1-1.0 mg/kg). Only a solvent (10% HCO-60/saline) was administered to a control group.
As an antitumor effect, the survival days of the mice were counted.

histone deacetylase = details: Nakajima, H. et al (1998); cited from earlier work
[3] = system: human prostate cancer PC-3; experiment: In vivo growth suppression rate, PC-3 tumor-carrying mice; set-up: species or system mouse; details: PC-3, FR901228 3.2 mg/kg
Protocol: as §1

[4] = system: p21 gene and c-myc gene expression in PC-3 tumor; experiment: p21 and c-myc gene expression in vivo in PC-3 tumor of nude mouse (Example 5); details: 3.2 mg/kg i.v.
Protocol: (§2) Human prostate cancer PC-3 or kidney cancer ACHN was subcutaneously implanted in a nude mouse, and when the size of the tumor reached 100-300 mg, FR901228 (3.2 mg/kg) was intravenously administered. The tumor was removed with the lapse of time, and after extracting RNA, the expression amount of p21 gene and c-myc gene was examined by real time PCR in the same manner as in Example 4. The c-myc gene was amplified using a SYBR green PCR master mix (PE Biosystem) and primer 5′-GACAGATCAGCAACAACCGAAA-3′ (human c-myc upstream)(SEQ ID; No 3), 5′-TTGTGTGTTCGCCTCTTGACAT-3′ (human c-myc downstream)(SEQ ID; No 4) according to the operation manual, and detected with ABI 7700 PRISM sequence detector (PE Biosystem).

[5] = system: human prostate cancer cell line PC-3; experiment: Antitumor test, human prostate cancer PC-3 solid tumor in nude mice (Example 1); type: in vivo, mouse; details: PC-3, i.v. q4d×3, 3.2 and 1.8 mg/kg, FIG. 1
Protocol: (§3) A necessary amount of FR901228 was weighed and a solvent (10% HCO-60/saline) was added. The mixture was sonicated to allow for dissolution. A positive control substance Paclitaxel was dissolved in Cremophor EL/ethanol (1:1) solution to 24 mg/mL prior to the testing, and preserved in a refrigerator. When in use, it was diluted with a 9-fold amount of physiological saline to 2.4 mg/mL (solvent component: 5% Cremophor EL-5% ethanol-90% saline).
For antitumor test of the pharmaceutical agent, BALB/cANnNCrj-nu/nu mice (male, 6-week-old) were purchased from Charles River Japan and, after acclimation for not less than one week, used for the test. The mice were reared under an SPF environment and allowed a free access to water and feed. […]
(§4) The administration was started on the day of grouping (Day 0). […] The amount of liquid for each administration was calculated (0.1 mL/10 g body weight) based on the body weight measured on the administration day. […]
(§5) The tumor size (longer diameter, shorter diameter) and body weight were measured twice a week from Day 0.
The level of tumor growth was evaluated based on the tumor growth rate (Relative Tumor Volume). […] The antitumor effect was determined on the 14th day (Day 14) from the start of the administration of the pharmaceutical agent. […]

human kidney cancer A498 = experiment: In vivo growth suppression rate, A498 tumor-carrying mice; set-up: species or system mouse; details: A498, FR901228 3.2 mg/kg
Protocol: as §1

[6] = system: human kidney cancer cell line ACHN; experiment: Antitumor test, human kidney cancer ACHN solid tumor in nude mice (Example 3); type: in vivo, mouse; details: i.v. q4d×3, FIG. 3(b)
Protocol: as §3
(§6) For antitumor test of the pharmaceutical agent, BALB/cANnNCrj-nu/nu mice (male, […]) were purchased from Charles River Japan and, after acclimation for not less than one week, used for the test. The mice were reared under an SPF environment and allowed a free access to water and feed. […]
as §4, §5
(§7) The level of tumor growth was evaluated based on the tumor growth rate (Relative Tumor Volume). […] The antitumor effect was determined on the 14th day (Day 14) from the start of the administration of a pharmaceutical agent. […]

[7] = system: p21 gene expression in PC-3 cells; experiment: p21 gene expression in vitro by real time PCR, PC-3 (Example 4); type: cell-based, human; details: PC-3, FR901228 5 ng/mL, FIG. 4(a)
Protocol: (§8) A necessary amount of FR901228 was weighed and dissolved in a solvent (99.5% ethanol) to the concentration of 1 mg/mL. Then, the solution was diluted with culture medium.
(§9) Cultured human cancer cell (PC-3 and ACHN) were cultured in DMEM (containing 10% FCS).
(§10) The cells were inoculated at 2×10^6 cells per a culture dish, and cultured in the presence of FR901228 (5 ng/mL) for a given time. After culturing, RNA was extracted with a TRIZOL reagent (GIBCO BRL) according to the operation manual.
(§11) RNA was subjected to reverse transcription using a Taq-man reverse transcription reagent (PE Biosystem) according to the operation manual. Thereafter, p21 gene was amplified using a SYBR green PCR master mix (PE Biosystem) and primer 5′-GGCAGACCAGCATGACACATT-3′ (p21 upstream)(SEQ ID; No 1), 5′-GGATTAGGGCTTCCTCTTGGAG-3′ (SEQ ID; No 2) according to the operation manual, and detected with ABI 7700 PRISM sequence detector (PE Biosystem). The expression amount of p21 gene was calculated from a standard curve, divided by the expression amount of β-actin gene, which was used as an internal standard, and expressed in a standardized relative expression amount.

[8] = system: p21 gene expression in ACHN cells; experiment: p21 gene expression in vitro by real time PCR, ACHN (Example 4); type: cell-based, human; details: FR901228 5 ng/mL, FIG. 4(b)
Protocol: as §8, §9, §10, §11

human kidney cancer ACHN [9] = experiment: In vivo growth suppression rate, ACHN tumor-carrying mice; set-up: species or system mouse; details: FR901228 3.2 mg/kg
Protocol: as §1

[10] = system: human prostate cancer cell line PC-3; experiment: Antitumor test, human prostate cancer PC-3 solid tumor in nude mice (Example 3); type: in vivo, mouse; details: dose of 3.2 mg/kg i.v. q4d×3, FIG. 3(a)
Protocol: as §3, §6, §4, §5, §7

[11] = system: p21 gene and c-myc gene expression in ACHN tumor; experiment: p21 and c-myc gene expression in vivo in ACHN tumor of nude mouse (Example 5); details: 3.2 mg/kg i.v.
Protocol: as §2

[12] = system: human prostate cancer PC-3; experiment: In vitro growth suppression, PC-3; type: cell-based; details: PC-3, contacted for 72 hr
human kidney cancer ACHN [13] = experiment: In vitro growth suppression, ACHN; type: cell-based; details: contacted for 72 hr
human lymphoma U937 = experiment: In vitro growth suppression, U937; type: cell-based; details: U937, contacted for 72 hr

Row | Compound | growth suppression rate [1] | antitumor effect in vivo against human lymphoma (survival of mice) [2] | histone deacetylase inhibitory activity (histone deacetylase) | growth suppression rate [3] | c-myc gene expression in vivo [4] | time of peak of p21 gene expression after administration [4] | p21 gene expression in vivo ([4]; FIG. 5(a)) | antitumor effect in vivo against human prostate cancer (tumor growth rate) [5] | growth suppression rate (human kidney cancer A498) | antitumor effect against ACHN (tumor growth rate) [6] | p21 gene expression in vitro [7] | p21 gene expression in vitro [8] | growth suppression rate (human kidney cancer ACHN [9]) | antitumor effect against PC-3 (tumor growth rate) [10] | c-myc gene expression in vivo [11] | p21 gene expression in vivo ([11]; FIG. 5(a)) | growth suppression effect in IC50 value [12] | growth suppression effect in IC50 value (human kidney cancer ACHN [13]) | growth suppression effect in IC50 value (human lymphoma U937)
1 | C/C=C1\NC(=O)[C@H]2CSSCC/C=C/[C@H](CC(=O)N[C@H](C(C)C)C(=O)N2)OC(=O)[C@H](C(C)C)NC1=O [FR901228] | 84% | showed an antitumor effect | stronger histone deacetylase inhibitory activity | 98% | decreased expression | 3 h | increased expression of p21 gene | showed an antitumor effect | 29% | did not show an antitumor effect | increased expression of the p21 gene with the lapse of time | did not show increased expression of p21 gene | 20% | potent antitumor effect | increased expression | did not show increased expression of p21 gene |  |  | 
2 | FK228 |  |  |  |  |  |  |  |  |  |  |  |  |  |  |  |  | 3.17 ng/mL | 4.25 ng/mL | 3.20 ng/mL
